Counter-ions that a name gives are not always drawn.

One assay has as its system E. coli strain ATCC25922. The assay is described as follows: Antibiotic sensitivity assay (CFUs/ml), E. coli. The settings on record: for decrease in CFUs relative to ciprofloxacin treatment alone: compound 25 μM + ciprofloxacin 40 nM. In kind it is cell-based, Escherichia coli. The procedure:
(§1) Bacterial cultures were diluted to 10^5 cells/mL in LB broth (ATCC25922) or MH broth (ATCC27853, ATCC29212, ATCC29213). Antibiotics and/or phthalocyanines were added at indicated concentrations and the culture was incubated at 37° C. Samples were collected at 0, 24, 48, and 72 hours and plated on LB agar (ATCC25922) or tryptic soy blood agar (ATCC27853, ATCC29212, ATCC29213) to determine CFUs/ml.
The ability of 4,4-Fe-PcTs and 3,4-Cu-PcTs to potentiate the activity of ciprofloxacin (abbreviated “CFX”) was tested. Ciprofloxacin inhibits DNA gyrase in bacteria, causing accumulation of double-stranded DNA breaks (DSBs) and inducing the SOS response. The inventors characterized the ability of 4,4-Fe-PcTs and 3,4-Cu-PcTs to potentiate the activity of ciprofloxacin in the pathogenic E. coli strain ATCC25922, which was used previously by Cirz et al. to evaluate the role of SOS response proteins in antibiotic resistance.

The target in another assay is MvRadA (Methanococcus voltae, UniProt O73948). The settings on record: cited from earlier work.
The target in assay [1] is T1, RecA (Escherichia coli, UniProt P0A7G6). To be noted: cited from earlier work.
Target sequence in this assay (P0A7G6 2-353): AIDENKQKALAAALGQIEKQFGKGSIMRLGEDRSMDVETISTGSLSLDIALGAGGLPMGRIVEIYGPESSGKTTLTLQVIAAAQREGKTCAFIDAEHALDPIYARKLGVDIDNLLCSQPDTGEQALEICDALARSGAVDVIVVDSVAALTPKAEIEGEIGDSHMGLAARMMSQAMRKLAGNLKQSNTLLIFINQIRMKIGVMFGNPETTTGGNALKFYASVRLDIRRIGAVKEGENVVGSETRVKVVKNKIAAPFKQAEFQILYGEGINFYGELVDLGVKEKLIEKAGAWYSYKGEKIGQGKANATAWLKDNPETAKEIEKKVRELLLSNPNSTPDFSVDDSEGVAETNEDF
In assay [2] the test system is bacteria / ΔrecA bacterial strain. To be noted: cited from earlier work.
For assay [3], the system named is SOS response (E. coli strain SS996). The assay can be described thus: SOS induction, GFP regulated by the sulA SOS promoter, flow cytometry. The format is cell-based, Escherichia coli. The settings on record: KAN 43 μM, CAM 46 μM, TET 21 μM, SPECT 808 μM; three hours. As to the method:
To confirm that the bactericidal antibiotic potentiating activity of 4,4-Fe-PcTs was correlated with reduced SOS induction, SOS induction in the E. coli strain SS996 was monitored. This strain contains a green fluorescent protein (GFP) regulated by the sulA SOS promoter.
SS996 cultures were grown to an optical density at 600 nm (OD600) of 0.3. For cultures treated with 4,4-Fe-PcTs, the 4,4-Fe-PcTs was added to give a concentration of 25 μM and the culture was incubated for three hours at 37° C. Antibiotics were then added to yield concentrations of 2.5 μM (CFX), 40 μM (AMP), 43 μM (KAN), 21 μM (TET), 46 μM (CAM), or 808 μM (SPECT). Samples (˜10^6 cells) were taken immediately before the addition of antibiotics (time zero) and every hour for three hours. Samples were washed once in PBS, and resuspended in PBS prior to analysis by flow cytometry. GFP expression was monitored using flow cytometer (Beckman Coulter, Inc.) with a 488 nm argon laser and a 515-545 nm emission. Flow cytometry data were analyzed using Flowjo (Tree Star, Inc.).
On the technique in general: Flow cytometry measures light scatter and fluorescence of single cells or particles in a stream.

The target in assay [4] is T2, EcRecA (Escherichia coli, UniProt P0A7G6). To be noted: gel shift; 0, 10, 100 μM. (Mobility shift assays separate free from complexed probe on a gel.)
Assay [5] concerns the target T2, EcRecA. The settings on record: compound 10 μM; poly-(dT)36-stimulated; relative to reaction without inhibitor.
Procedure: An ATPase assay [18] was used to screen a set of commercially available anionic, aromatic molecules for inhibitors of RecA ATPase activity. The release of inorganic phosphate by ATP hydrolysis was monitored using a Malachite Green phosphate assay [18]. The ssDNA-dependent ATPase reaction contained 1 μM EcRecA, 6 μM ssDNA (poly-(dT)36, concentration in nucleotides), 5 mM ATP, 50 mM Tris-Hepes buffer at pH 7.4, 10 mM MgCl2, 0.1% v/v 2-mercaptoethanol, and indicated amounts of 4,4-Fe-PcTs or 3,4-Cu-PcTs. Phosphate levels were measured by transferring 25 μl of ATPase reaction to 475 μl of malachite green phosphate assay, which contained 0.033% w/v Malachite Green, 1.3% w/v ammonium molybdate. 1.0 M HCl was used to monitor the release of inorganic phosphate by ATP hydrolysis [18]. The green complex formed between Malachite Green, molybdate, and free orthophosphate was measured by recording the absorbance at 620 nm.
Results are the average of two independent experiments where the deviation was less than 10%.
Another assay concerns the target DltA (Bacillus cereus, UniProt Q81G39). The assay can be described thus: DltA control for specificity of ATPase inhibition. In kind it is biochemical. The settings on record: DltA assayed in the presence of 3,4-Cu-PcTs.
The target in assay [6] is T2, EcRecA. To be noted: gel shift; 0, 10, 100 μM. The procedure:
EcRecA (4 μM), a 1.0-kb double-stranded DNA (dsDNA) PCR product (12 μM in base pairs), and indicated concentrations of 4,4-Fe-PcTs or 3,4-Cu-PcTs were incubated in binding buffer (5 mM MgAc2, 50 mM Tris-Hepes at pH 7.6) for 10 minutes at 37° C. EcRecA bound (slower migrating) and unbound dsDNA were resolved using a 1.0% agarose gel. The gel was stained with ethidium bromide and the fluorescence emission in the gel was recorded using a Kodak GelLogic 200 system.
This is another data set of the same source.

Assay [7] concerns the target T1, RecA. To be noted: 3,4-Cu-PcTs 3.75 μM; RecA 3.5 μM; AMPPNP.
Target sequence in this assay (P0A7G6 2-353): as above
Procedure: RecA-dsDNA-AMPPNP complexes formed by incubating RecA (3.5 μM), calf thymus dsDNA (Sigma) at a 40 dsDNA:1 RecA ratio (w/w), AMP-PNP (adenosine 5′-(β,γ-imido)triphosphate) (Sigma) (1.3 mM), MgAc2 (Sigma) (2 mM), triethanolamine-HCl (Fisher) buffer (25 mM, pH 7.2) with or without 3,4-Cu-PcTs (3.75 μM) at 37° C. for 10 minutes. Samples were applied to carbon-coated grids and stained with 2% uranyl acetate (w/v). Images were recorded on film with a Tecnai 12 electron microscope operating at 80 keV with a nominal magnification of 30,000×. Negatives were scanned with a Nikon Coolscan 8000 densitometer at a raster of 4.2 Å/pixel.
The target in a further assay is EcRecA / EcLexA (Escherichia coli, UniProt P0A7G6). To be noted: in presence of ATPγS. As to the method: The LexA cleavage reaction (10 μl) contained 1 μM poly-(dT)45, 2 μM EcRecA, 10 μM EcLexA, 0.1 mM ATP-γ-S, 20 mM MgAc2, 50 mM Hepes-Tris at pH 7.6 and indicated concentrations of 4,4-Fe-PcTs or 3,4-Cu-PcTs. The reaction was incubated for 120 minutes at 21° C. and stopped by the addition of 5 μl of loading buffer (30% glycerol, 10% SDS, 0.2 M Tris-HCl at pH 6.8, 0.1% v/v 2-mercaptoethanol and 0.1% w/v bromophenol blue). The products were resolved using a 13% SDS-polyacrylamide gel. The proteins were stained with Coomassie Blue-R250.

For assay [8], the target named is T2, EcRecA. To be noted: in presence of ATPγS. As to the method:
EcRecA (5 μM) was incubated with indicated concentrations of 4,4-Fe-PcTs or 3,4-Cu-PcTs in strand exchange buffer (2 mM ATP-γ-S(Sigma-Aldrich), 10 mM MgAc2, 100 mM KAc, 50 mM Hepes-Tris buffer at pH 7.6, 0.1% v/v 2-mercaptoethanol) for 10 minutes at 37° C. FAM43 (0.35 μM) was added and the reaction was incubated for 2 minutes. The reaction was started by the addition of 0.35 μM of the dsDNA substrate (annealing product of equimolar oligonucleotides 45A and 55A). The reaction was stopped at 30 minutes by adding EDTA to a final concentration of 20 mM and trypsin to a final concentration of 1 μg/μl. After 10 minutes, 10 μl of the reaction was mixed with 5 μl of loading buffer (30% glycerol and 0.1% bromophenol blue) and products were resolved using a 20% native acrylamide gel. The fluorescence emission in the gel was recorded using a Kodak GelLogic 200 system.

Assay [9] concerns the target T1, RecA. As to the method: RecA (5 μM) and 3,4-Cu-PcTs (50 μM) were incubated in 0.15 M NaCl and 0.05 M Tris-HCl buffer at pH 7.4. The protein complexes were resolved by loading 2 ml of RecA/3,4-Cu-PcTs on a Pharmacia sephacryl S-300 column pre-equilibrated with the running buffer. The size exclusion column was calibrated with standard proteins with molecular weights of 35, 67, and 167 KD. Elution of proteins off the size exclusion column was monitored using absorbance at 280 nm.
Target sequence in this assay (P0A7G6 whole entry): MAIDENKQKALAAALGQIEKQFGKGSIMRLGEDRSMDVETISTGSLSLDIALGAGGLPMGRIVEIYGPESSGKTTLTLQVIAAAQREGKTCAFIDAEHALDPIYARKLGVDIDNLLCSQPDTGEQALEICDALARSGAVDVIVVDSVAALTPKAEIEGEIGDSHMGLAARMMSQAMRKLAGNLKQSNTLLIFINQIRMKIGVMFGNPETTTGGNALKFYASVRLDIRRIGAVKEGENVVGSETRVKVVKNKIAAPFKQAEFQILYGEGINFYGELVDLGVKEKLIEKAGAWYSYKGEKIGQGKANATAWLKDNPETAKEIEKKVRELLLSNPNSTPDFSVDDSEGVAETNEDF

In assay [10] the test system is Pseudomonas aeruginosa ATCC27853. The assay can be described thus: Antibiotic sensitivity assay (CFUs/ml), P. aeruginosa. The settings on record: ciprofloxacin 6.5 μM. In kind it is cell-based. As to the method: as §1
To confirm that the activity of 4,4-Fe-PcTs was not specific to the gram-negative ATCC25922 E. coli, the ability of 4,4-Fe-PcTs to potentiate the activity of ciprofloxacin in another gram-negative (Pseudomonas aeruginosa ATCC27853) strain and two gram-positive (Staphylococcus aureus ATCC29213 and Enterococcus faecalis ATCC29212) strains was evaluated.

The subject of a further assay is ATCC25922 E. coli. The assay is described as follows: Ciprofloxacin resistance assay and reconstruction assay (in vitro mutagenesis). The format is cell-based, Escherichia coli.
Another assay deals with ATCC25922 cells. The assay can be described thus: Neutropenic murine bacterial thigh infection model. The format is in vivo, Escherichia coli. The settings on record: mice treated only with ciprofloxacin 1 mg/kg s.c.; after 72 hours of infection. As to the method: Six-eight week-old, specific-pathogen-free, female CD-1 mice (weight, 25-35 g) were rendered neutropenic by intraperitoneal injection with 150 mg/kg cylcophosphamide (Sigma) four days before infection and 100 mg/kg cyclophosphamide 24 hours before infection. LB broth cultures inoculated from fresh ATCC25922 colonies and cells were grown to the log phase (OD600 of approximately 0.3) and diluted 1:1000 in LB broth. Thigh infections were produced by injecting 50 μl (approximately 10^6 CFUs) of diluted cultures into halothane-anesthetized mice. One group of mice was administrated inteperitoneal injection of 4,4-Fe-PcTs in conjunction with the second dose of cyclophosphamide (24 hours prior infection) (4,4-Fe-PcTs (pre)+CFX). Starting two hours after infection (defined as time zero), mice were administered subcutaneous injections of either 1 mg/kg ciprofloxacin alone (CFX) or co-treatment of 1 mg/kg ciprofloxacin with interperitoneal injection of 10 mg/kg 4,4-Fe-PcTs (4,4-Fe-PcTs+CFX and 4,4-Fe-PcTs (pre)+CFX) every 24 hours for 3 days. After 48 and 72 hours, three mice from each group were sacrificed, and their thighs removed and homogenized to determine the number of viable bacterial cells for both ciprofloxacin-sensitive and ciprofloxacin-resistant ATCC25922 cells. Serial dilutions of homogenates of the infected thigh were plated on LB agar (CFX Sensitive) and LB agar plates containing ciprofloxacin (40 nM) (CFX Resistant) to count viable cells for each of the three treatment groups.

T2 sequence (P0A7G6 whole entry): as above
DltA, sequence (Q81G39 whole entry): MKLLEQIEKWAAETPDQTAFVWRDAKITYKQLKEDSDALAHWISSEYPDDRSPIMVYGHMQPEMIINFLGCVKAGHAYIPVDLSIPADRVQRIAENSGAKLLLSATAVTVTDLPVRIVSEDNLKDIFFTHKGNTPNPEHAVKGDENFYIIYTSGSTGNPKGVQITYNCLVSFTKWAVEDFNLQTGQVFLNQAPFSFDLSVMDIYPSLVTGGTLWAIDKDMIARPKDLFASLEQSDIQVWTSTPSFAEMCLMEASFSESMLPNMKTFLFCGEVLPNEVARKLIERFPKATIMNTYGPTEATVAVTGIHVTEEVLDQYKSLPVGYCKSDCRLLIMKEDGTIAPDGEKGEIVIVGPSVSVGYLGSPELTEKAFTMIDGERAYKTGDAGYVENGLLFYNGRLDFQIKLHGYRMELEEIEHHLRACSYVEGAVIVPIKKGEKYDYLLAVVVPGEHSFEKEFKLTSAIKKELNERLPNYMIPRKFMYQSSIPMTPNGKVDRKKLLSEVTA
EcRecA / EcLexA, sequence (P0A7G6 whole entry): as the sequence (P0A7G6 whole entry) above
MvRadA, sequence (O73948 whole entry): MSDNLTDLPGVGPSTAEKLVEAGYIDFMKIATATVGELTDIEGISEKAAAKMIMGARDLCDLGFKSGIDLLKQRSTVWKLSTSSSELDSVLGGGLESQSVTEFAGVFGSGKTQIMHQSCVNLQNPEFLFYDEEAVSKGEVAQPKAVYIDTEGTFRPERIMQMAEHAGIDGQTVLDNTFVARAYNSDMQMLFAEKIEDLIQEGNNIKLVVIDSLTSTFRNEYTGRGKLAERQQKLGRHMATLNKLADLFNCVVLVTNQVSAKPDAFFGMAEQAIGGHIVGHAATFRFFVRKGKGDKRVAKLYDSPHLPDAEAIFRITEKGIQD
Procedure for ATCC25922 E. coli: An in vitro mutagenesis assay [1] was used to measure the ability of 4,4-Fe-PcTs to block the acquisition of ciprofloxacin-induced resistance in ATCC25922 E. coli. ATCC25922 cells were plated on media containing ciprofloxacin in the presence or absence of 4,4-Fe-PcTs and cultured for 10 days. Colonies that appeared early in the assay (days 1 and 2) are believed to arise from pre-existing ciprofloxacin resistance mutations [1]. Colonies that appear later in the incubation (days 3 to 8) are due to ciprofloxacin resistance mutations acquired during exposure to ciprofloxacin or pre-existing mutations with a slow growth phenotype [1].
To distinguish between these two types of mutants, a reconstruction assay that tests for the time it takes for colonies to appear in the presence of ciprofloxacin was used. Colonies that appear at least two days faster than they appeared in the original ciprofloxacin mutagenesis screen were classified as colonies that acquire resistance after exposure to ciprofloxacin [1]. Colonies that appeared in the same number of days as in the ciprofloxacin resistance assay were classified as colonies with pre-existing mutations [1].
Twenty-five independent colonies of ATCC2592 were used to inoculate 25 LB broth cultures that were incubated at 37° C. for 25 hours. Viable cell counts in these cultures were determined by plating serial dilutions onto LB agar plates. One hundred microliters from each culture (˜10^8 cells) were plated in duplicate on LB agar containing ciprofloxacin (CFX) (40 nM) or ciprofloxacin (40 nM) and 4,4-Fe-PcTs (25 μM) (CFX+4,4-Fe-PcTs). Three additional 100 μL aliquots from three cultures were also plated on the same media to determine the number of viable cells per day. At 24 hour intervals, visible colonies were counted, removed from the plate, and stored at −80° C. for later use in the reconstruction assay and sequencing. Every 24 hours, in parallel with the resistance assay, small plugs of agar between visible colonies were excised from resistance assay plates. Agar plugs were homogenized in M9 buffer. Dilutions were plated in duplicate on LB plates to determine the total number of viable cells per day. The cells were also plated on LB containing CFX (40 nM) to determine if any CFX-resistant colonies remained after excision [1].
Reconstruction assays were used to determine whether ciprofloxacin resistant colonies were due to post-exposure mutation or due to mutation prior to ciprofloxacin exposure. Ciprofloxacin resistant clones isolated from the resistance assay were grown to saturation in LB media in 96 well plates. Cultures were then replica-plated in duplicate using a 96-pin replicator on LB plates to confirm viability and LB plates containing ciprofloxacin (40 nM) to confirm ciprofloxacin resistance. Ciprofloxacin-resistant clones that were isolated in the presence 4,4-Fe-PcTs were replica plated on LB and LB containing 4,4-Fe-PcTs (25 μM) and ciprofloxacin (40 nM). Clones that were resistant before ciprofloxacin exposure were defined as clones that formed colonies on the ciprofloxacin-containing media in the same number of days in the reconstruction assay as in the original resistance assay. Clones that mutated after exposure to ciprofloxacin were defined as clones that formed colonies earlier than in the original resistance assay [1].
The rate of ciprofloxacin resistance was defined as the number of ciprofloxacin-resistant mutants per viable cell that evolve as a function of time. […]
Source text for DltA: DltA catalyzes the breakdown of ATP into AMP and pyrophosphate, which is further broken down by yeast pyrophosphatase into phosphate for quantification. Results are the average of two independent experiments where the deviation was less than 10%.

As to “aluminum (III) phthalocyanine chloride tetrasulfonic acid [Al-PcTs]”, in the assay with E. coli strain ATCC25922 (24 hours), the “decrease in CFUs relative to ciprofloxacin treatment alone” value is listed as about 100 fold.
For the molecule “zinc (II) phthalocyanine tetrasulfonic acid [Zn-PcTs]”, in the assay on E. coli strain ATCC25922 (24 hours), the “decrease in CFUs relative to ciprofloxacin treatment alone” value is about 100 fold.
Regarding metatungstate (W12O40^6−), the “MvRadA ATPase, DNA-binding, and DNA strand-exchange activities” value at MvRadA is “inhibited”. The “inhibition of RecA activity within E. coli cells” value at RecA [1] was “unable to inhibit”.
As to “copper phthalocyanine-tetrasulfonic acid [Cu-PcTs]”, the “decrease in CFUs relative to ciprofloxacin treatment alone” value in the assay on E. coli strain ATCC25922 (24 hours) is reported as about 100 fold.
Regarding `CO[C@H]1/C=C/O[C@@]2(C)Oc3c(C)c(O)c4c(O)c(cc(O)c4c3C2=O)NC(=O)/C(C)=C\C=C\[C@H](C)[C@H](O)[C@@H](C)[C@@H](O)[C@@H](C)[C@H](OC(C)=O)[C@@H]1C` [Rifamycin, rifamycin], in [2] (bacteria with RecA), the “SOS response and killing of bacteria” value is “activates the SOS response, but does not kill bacteria”. In assay [2] (ΔrecA bacterial strain), the “activity in ΔrecA bacterial strain” value is reported as “shows bactericidal activity”.
For the molecule `CN[C@@H]1[C@H](O)[C@H](NC)[C@H]2O[C@@]3(O)C(=O)C[C@@H](C)O[C@H]3O[C@@H]2[C@H]1O` [spectinomycin, spectinomycin dihydrochloride], in assay [3], the “induction of SOS-GFP reporter by antibiotic alone” value is reported as “only very low levels of GFP expression”.
Consider “nickel (II) phthalocyanine-tetrasulfonic acid [Ni-PcTs]”, for which, in the assay with E. coli strain ATCC25922 (24 hours), the “decrease in CFUs relative to ciprofloxacin treatment alone” value is about 100 fold.
On to `NC[C@H]1O[C@H](O[C@H]2[C@H](O)[C@@H](O[C@H]3O[C@H](CO)[C@@H](O)[C@H](N)[C@H]3O)[C@H](N)C[C@@H]2N)[C@H](O)[C@@H](O)[C@@H]1O` [Kanamycin, kanamycin monosulfate], for which the “induction of SOS-GFP reporter by antibiotic alone” value in assay [3] is listed as “did not induce the SOS-GFP reporter”.
On the same count and under the same terms, next, `O=C(N[C@H](CO)[C@H](O)c1ccc([N+](=O)[O-])cc1)C(Cl)Cl` [chloramphenicol]: “only very low levels of GFP expression”.
“copper phthalocyanine-3,4′,4″,4′″-tetrasulfonic acid tetrasodium salt [3,4-Cu-PcTs]”: the “inhibition of RecA ssDNA-binding activity” value at EcRecA [4] was “in the micromolar range”. The “inhibition of EcRecA ATPase activity” value against EcRecA [5] is given as “high degree of inhibition”. In addition, the “specificity of ATPase inhibition (DltA control)” value on DltA was “specific for inhibiting RecA ATPase activity”. For the same molecule, the “inhibition of RecA dsDNA-binding activity” value on EcRecA [6] is “in the micromolar range”. For the same molecule, on RecA [7], the “effect on RecA filament formation” value is given as “inhibited”. For the same molecule, the “inhibition of LexA cleavage” value on EcRecA / EcLexA is “inhibited”. The “inhibition of DNA strand-exchange” value at EcRecA [8] is on record as “inhibited”. The “effect on molecular weight (oligomeric state) of RecA complex” value at RecA [9] (3,4-Cu-PcTs 50 μM, RecA 5 μM) is “reduced the molecular weight of the RecA complex to a size consistent to the RecA ring-shaped hexamer storage complex”. Moreover, on RecA [9] (pre-incubation with 3,4-Cu-PcTs 50 μM, RecA alone eluted near the void volume), the “elution size of 3,4-Cu-PcTs/RecA complex” value was about 200 KD. In addition, the “potentiation of ciprofloxacin activity” value with E. coli strain ATCC25922 (ciprofloxacin 40 nM) is reported as “potentiated the activity of ciprofloxacin”. Moreover, the “colony forming units (CFUs)” value with E. coli strain ATCC25922 (co-treated with ciprofloxacin 40 nM and compound at concentrations above 25 μM) is listed as “no colony forming units (CFUs) were observed”. In addition, the CFUs entry in the assay on E. coli strain ATCC25922 (compound 25 μM plus ciprofloxacin 40 nM, 24 hours) is given as “no CFUs were observed”.
Consider “phthalocyanine tetrasulfonic acid [H-PcTs]”, for which the “decrease in CFUs relative to ciprofloxacin treatment alone” value in the assay with E. coli strain ATCC25922 (24 hours) is about 100 fold.
Turning to `O=C(O)c1cn(C2CC2)c2cc(N3CCNCC3)c(F)cc2c1=O` [ciprofloxacin, ciprofloxacin hydrochloride, reference compound], the “sensitivity of ATCC27853 to ciprofloxacin compared with gram-positive strains” value in [10] is “less sensitive to ciprofloxacin than the two gram-positive strains”. In the assay with ATCC25922 E. coli (cells treated with only ciprofloxacin), the “ciprofloxacin-resistant cells over time” value was “spike in ciprofloxacin-resistant cells at day 5”. The “ciprofloxacin-resistant colonies caused by pre-existing mutations” value with ATCC25922 E. coli (ciprofloxacin-alone (40 nM)) came out at 29%. Further, in the assay on ATCC25922 cells, the “ciprofloxacin-resistant cells in thigh” value was “Approximately 50,000 cells”.
